# Patent publication US8815875B2 (Merck Sharp & Dohme Corp., priority 2008, dated 2014)
# Molecular target: FABP4 (Homo sapiens, UniProt P15090)
# Experiment: TdF (Temperature Dependence Fluorescence) assay, thermal shift, FABP4
# Assay type: binding
# Description: TdF (Temperature Dependence Fluorescence) Assay for FABP3 and FABP4
# The TdF assay was mainly conducted in the 96-well based CHROMO-4 real time fluorescence plate reader (BioRad). The Sypro Orange (Sigma-Aldrich), environmentally sensitive fluorescence dye, was used to monitor the protein folding-unfolding transition. Protein-ligand binding was gauged by the change (or shift) in the unfolding transition temperature (ΔTm) acquired at protein alone with respect to protein in the presence of ligand of interest.
# The compound of interest was first prepared in DMSO stock (typical concentration: 10 mM). […] Final percentage of DMSO resided in the sample was 2%. The sample plate was heated from 30° C. to 90° C. with thermal ramping rate of 1° C./min. The fluorescence signals were acquired with excitation and emission wavelengths centered at 490 and 560 nm respectively. The instrument thermal stability was ±0.2° C.
# Theoretical basis for TdF-based ligand binding affinity constant
# In brief, the binding constant of the ligand at the Tm is expressed as below:
# [formula] where To is the midpoint of unfolding for unliganded protein and Tm is the midpoint of unfolding in presence of ligand. [LTm] is free ligand at Tm. The ΔHu and ΔCpu are the enthalpy of unfolding and heat capacity change of unfolding for the protein respectively.
# The nonlinear regression fitting in general readily reaches convergence by properly constraining the initial values for the fitting parameters (e.g. the initial “guess” for the ΔHu was constrained to 120 kcal/mol; initial Yn and mn were set to 1 and zero to best represent the melting curve along the low temperature region; negative slope of −0.5 was initially chosen for mu; initial Tm was also constrained to 50° C.).
# [formula] (see Brandts et al and Mayhood et al, shown above) where ΔHL (T) is the van't Hoff enthalpy of ligand binding at temperature T and ΔCpL is the heat capacity upon ligand binding. For simplicity, the ΔCpL and ΔHL (T) were set to zero and −7 kcal/mol respectively. […] TdCD (Temperature-dependent Circular Dichroism) Assay for FABP3/4/5
# Chain of FABP4 (P15090 whole entry, species assumed): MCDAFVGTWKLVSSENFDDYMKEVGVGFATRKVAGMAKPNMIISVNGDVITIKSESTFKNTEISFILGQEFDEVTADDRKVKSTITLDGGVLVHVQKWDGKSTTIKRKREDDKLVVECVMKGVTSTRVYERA
Kd [nM],FABP4 TdF Kd,SMILES
> 500,–,Cc1c(Cl)cccc1OCc1cc(=O)n2nc(-c3ccccc3)nc2n1C [28-1]
–,B (0.5 ≦ B < 0.001 μM),O=c1c(Br)c(COc2cccc(Cl)c2C2CC2)[nH]c2nc(-c3ccccc3)nn12 [23-1]
–,B (0.5 ≦ B < 0.001 μM),Cc1c(Cl)cccc1OCc1cc(=O)n2nc(-c3ccsc3)nc2[nH]1 [25-4]
> 500,–,O=c1cc(CN2CCC(Cc3ccccc3F)C2)[nH]c2nc(-c3ccccc3)nn12 (centres unmarked) [1-92]
–,B (0.5 ≦ B < 0.001 μM),C=CCc1c(Cl)cccc1OCc1cc(=O)n2nc(-c3ccccc3)nc2[nH]1 [42-3]
–,B (0.5 ≦ B < 0.001 μM),O=c1cc(CN2CCCC2Cc2c(F)cccc2Cl)[nH]c2nc(-c3ccccc3)nn12 (centres unmarked) [1-131]
–,B (0.5 ≦ B < 0.001 μM),"Cc1c(Cl)cccc1OC(C)c1cc(=O)n2nc(-c3ccccc3)nc2[nH]1 (single isomer, unassigned) [37-6]"
> 500,–,Cc1cc(C(C)(C)C)ccc1OCc1cc(=O)n2nc(-c3ccccc3)nc2[nH]1 [1-74]
> 500,–,CCc1ccc(OCc2cc(=O)n3nc(C4CC4)nc3[nH]2)cc1 [8-12]
–,B (0.5 ≦ B < 0.001 μM),O=c1cc(COC2CCc3ccccc32)[nH]c2nc(-c3ccccc3)nn12 (centres unmarked) [1-9]
–,B (0.5 ≦ B < 0.001 μM),Cc1cccc2c1OCCN2Cc1cc(=O)n2nc(-c3ccccc3)nc2[nH]1 [1-149]
> 500,–,O=c1cc(COc2ccc(OC(F)(F)F)cc2)[nH]c2nc(-c3ccccc3)nn12 [1-65]
≤ 1,–,O=C(NC1(c2ccccc2Cl)CC1)C1(OCc2cc(=O)n3nc(-c4ccccc4)nc3[nH]2)CCCCC1 [48-8]
–,B (0.5 ≦ B < 0.001 μM),CN(Cc1cc(=O)n2nc(-c3ccccc3)nc2[nH]1)c1cccc(Cl)c1C1CC1 [18-3]
> 500,–,O=c1cc(COC2CCOCC2)[nH]c2nc(-c3ccccc3)nn12 [1-76]
–,B (0.5 ≦ B < 0.001 μM),O=c1cc(COc2ccc(Cl)c(F)c2)[nH]c2nc(-c3ccccc3)nn12 [1-94]
–,B (0.5 ≦ B < 0.001 μM),Cc1cc(N)nn1C(=O)c1c(Cl)cccc1OCc1cc(=O)n2nc(-c3ccccc3)nc2[nH]1 [47-52]
≤ 1,–,O=C(NCC1(CO)CCC1)C1(OCc2cc(=O)n3nc(-c4ccccc4)nc3[nH]2)CCCCC1 [48-11]
> 500,–,CCc1ccc(OCc2cc(=O)n3nc(-c4cccnc4)nc3[nH]2)cc1 [8-5]
–,B (0.5 ≦ B < 0.001 μM),O=c1cc(CN2CCc3ccc(Br)cc32)[nH]c2nc(-c3ccccc3)nn12 [1-82]
–,B (0.5 ≦ B < 0.001 μM),O=C(NCC1(CO)CC1)C1(OCc2cc(=O)n3nc(-c4ccccc4)nc3[nH]2)CCCCC1 [48-54]

Kd [nM],FABP4 TdF Kd,SMILES
> 500,–,O=C(NC1CC1)C1(OCc2cc(=O)n3nc(-c4ccccc4)nc3[nH]2)CCCCC1 [48-18]
–,B (0.5 ≦ B < 0.001 μM),N#Cc1cccc(OCc2cc(=O)n3nc(-c4ccccc4)nc3[nH]2)c1C1CC1 [46-2]
≤ 1,–,O=C(NC1(c2cccc(Cl)c2F)CC1)C1(OCc2cc(=O)n3nc(-c4ccccc4)nc3[nH]2)CCCCC1 [48-10]
–,B (0.5 ≦ B < 0.001 μM),O=c1cc(CO[C@H]2C[C@H]3CC[C@@H]2C3)[nH]c2nc(-c3ccccc3)nn12 [1-108]
–,B (0.5 ≦ B < 0.001 μM),O=c1c(Cl)c(CN2CCOc3c(Br)cccc32)[nH]c2nc(-c3ccccc3)nn12 [24-4]
> 500,–,CCc1ccc(OCc2[nH]c3nc(-c4ccccc4)nn3c(=O)c2Br)cc1 [2-2]
> 500,–,CCc1ccc(OCc2[nH]c3nc(-c4ccccc4)nn3c(=O)c2C)cc1 [15-3]
> 500,–,COc1ccc(OCc2cc(=O)n3nc(-c4ccccc4)nc3[nH]2)cc1OC [1-41]
≤ 1,–,"O=C(NCC1(c2ccccc2Cl)CC1)c1c(Cl)cccc1OCc1cc(=O)n2nc(-c3ccccc3)nc2[nH]1 [47-29, 2-chloro-N-((1-(2-chlorophenyl)cyclopropyl)methyl)-6-((7-oxo-2-phenyl-4,7-dihydro-[1,2,4]triazolo[1,5-a]pyrimidin-5-yl)methoxy)benzamide]"
–,B (0.5 ≦ B < 0.001 μM),"COC[C@H]1CCCN1C(=O)C1(OCc2cc(=O)n3nc(-c4ccccc4)nc3[nH]2)CCCCC1 [48-6, (R)-5-((1-(2-(methoxymethyl)pyrrolidine-1-carbonyl)cyclohexyloxy)methyl)-2-phenyl-[1,2,4]triazolo[1,5-a]pyrimidin-7(4H)-one]"
> 500,–,COC(=O)C1(NCc2cc(=O)n3nc(-c4ccccc4)nc3[nH]2)CCc2ccc(Br)cc2C1 (centres unmarked) [1-155]
> 500,–,O=c1cc(COc2cccc3cnccc23)[nH]c2nc(-c3ccccc3)nn12 [1-75]
≤ 1,–,"O=C(NCC1(CO)CCCC1)C1(OCc2cc(=O)n3nc(-c4ccccc4)nc3[nH]2)CCCCC1 [48-15, N-((1-(hydroxymethyl)cyclopentyl)methyl)-1-((7-oxo-2-phenyl-4,7-dihydro-[1,2,4]triazolo[1,5-a]pyrimidin-5-yl)methoxy)cyclohexanecarboxamide]"
≤ 1,–,O=c1cc(CSc2cccc(Cl)c2C2CCC2)[nH]c2nc(-c3ccccc3)nn12 [52-5]
–,B (0.5 ≦ B < 0.001 μM),CCN(C(=O)C1(OCc2cc(=O)n3nc(-c4ccccc4)nc3[nH]2)CCCCC1)C1CCCCC1 [48-38]
–,B (0.5 ≦ B < 0.001 μM),Cn1nccc1NC(=O)c1ccccc1OCc1cc(=O)n2nc(-c3ccccc3)nc2[nH]1 [47-54]
–,B (0.5 ≦ B < 0.001 μM),"Cc1cc(NC(=O)c2c(Cl)cccc2OCc2cc(=O)n3nc(-c4ccccc4)nc3[nH]2)no1 [47-8, 2-chloro-N-(5-methylisoxazol-3-yl)-6-((7-oxo-2-phenyl-4,7-dihydro-[1,2,4]triazolo[1,5-a]pyrimidin-5-yl)methoxy)benzamide]"
–,B (0.5 ≦ B < 0.001 μM),Cc1c(F)cccc1OCc1cc(=O)n2nc(-c3ccccc3)nc2[nH]1 [1-39]
> 500,–,CCc1ccc(OCc2cc(=O)n3nc(CC)nc3[nH]2)cc1 [8-4]
–,B (0.5 ≦ B < 0.001 μM),COCC1(CNC(=O)C2(OCc3cc(=O)n4nc(-c5ccccc5)nc4[nH]3)CCCCC2)CC1 [48-55]
≤ 1,–,Cc1cc(N)n(C(=O)c2c(Cl)cccc2OCc2cc(=O)n3nc(-c4ccccc4)nc3[nH]2)n1 [47-51]

Kd [nM],FABP4 TdF Kd,SMILES
–,B (0.5 ≦ B < 0.001 μM),CCc1cccc(OCc2cc(=O)n3nc(-c4ccccc4)nc3[nH]2)c1 [1-60]
–,B (0.5 ≦ B < 0.001 μM),O=c1cc(CO[C@@H]2C[C@H]3CC[C@@H]2C3)[nH]c2nc(-c3ccccc3)nn12 [1-107]
–,B (0.5 ≦ B < 0.001 μM),CN(C(=O)C1(OCc2[nH]c3nc(-c4ccccc4)nn3c(=O)c2Cl)CCCCC1)C1CCCCC1 [50-4]
> 500,–,Cc1ccc(Br)c2ccn(Cc3cc(=O)n4nc(-c5ccccc5)nc4[nH]3)c12 [1-38]
–,B (0.5 ≦ B < 0.001 μM),O=C(NCC1(CO)CC1)c1ccccc1OCc1cc(=O)n2nc(-c3ccccc3)nc2[nH]1 [47-65]
–,B (0.5 ≦ B < 0.001 μM),O=C(NCC1(CO)CCOCC1)C1(OCc2cc(=O)n3nc(-c4ccccc4)nc3[nH]2)CCCCC1 [48-62]
> 500,–,Cc1cc(NC(=O)C2(OCc3cc(=O)n4nc(-c5ccccc5)nc4[nH]3)CCCCC2)n(C)n1 [48-35]
> 500,–,Cc1csc(-c2ccc(OCc3cc(=O)n4nc(-c5ccccc5)nc4[nH]3)cc2)n1 [1-44]
–,B (0.5 ≦ B < 0.001 μM),COc1cccc(C)c1OCc1cc(=O)n2nc(-c3ccccc3)nc2[nH]1 [1-58]
> 500,–,CCc1ccc(OCc2cc(=O)n3nc(CO)nc3[nH]2)cc1 [8-8]
> 500,–,O=C(O)C1(OCc2cc(=O)n3nc(C(F)(F)F)nc3[nH]2)CCCCC1 [54-1]
> 500,–,COc1ccc(Cl)cc1NCc1cc(=O)n2nc(C(F)(F)F)nc2[nH]1 [5-6]
–,B (0.5 ≦ B < 0.001 μM),O=C(O)C1(NC(=O)C2(OCc3cc(=O)n4nc(-c5ccccc5)nc4[nH]3)CCCCC2)CCCCC1 [48-44]
–,B (0.5 ≦ B < 0.001 μM),CN(CC1(c2ccccc2Cl)CC1)C(=O)C1(OCc2cc(=O)n3nc(-c4ccccc4)nc3[nH]2)CCCCC1 [48-42]
≤ 1,–,Nc1cc(C2CC2)nn1C(=O)c1c(Cl)cccc1OCc1cc(=O)n2nc(-c3ccccc3)nc2[nH]1 [47-50]
–,B (0.5 ≦ B < 0.001 μM),"COC[C@@H]1CCCN1C(=O)c1c(Cl)cccc1OCc1cc(=O)n2nc(-c3ccccc3)nc2[nH]1 [47-9, (S)-5-((3-chloro-2-(2-(methoxymethyl)pyrrolidine-1-carbonyl)phenoxy)methyl)-2-phenyl-[1,2,4]triazolo[1,5-a]pyrimidin-7(4H)-one]"
–,B (0.5 ≦ B < 0.001 μM),O=C(NCC1(CO)CCCC1)c1ccccc1OCc1[nH]c2nc(-c3ccccc3)nn2c(=O)c1Cl [24-9]
> 500,–,Cc1c(Cl)cccc1NCc1[nH]c2ncnn2c(=O)c1Cl [13-2]
> 500,–,CN(C)C(=O)C1(OCc2cc(=O)n3nc(-c4ccccc4)nc3[nH]2)CCCCC1 [48-30]
> 500,–,CC(C)(C)OC(=O)N1CCC(OCc2cc(=O)n3nc(-c4ccccc4)nc3[nH]2)(C(=O)NCC2CC2)CC1 [48-21]
